Test results taken from patent US6355799B1, “Substituted benzene compounds, process for their preparation, and herbicidal and defoliant compositions containing them” (ISK Americas Incorporated, priority 1997, dated 2002).

Tests used:
Type in all cases: in vivo
[1] = test system: redroot pigweed (Amaranthus retroflexus, AMARE); test: Pre-emerge test, greenhouse herbicide activity screening; conditions: pre-emerge, rated 14 days after application, 0 = no damage, 100 = complete death
Summary of the method: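 Rating: 0–100 visual injury, 14 DAA. Application: acetone, 187 l/ha, 15–1000 g ai/ha, flat-fan track sprayer with nozzle 40–45 cm above soil or canopy. Post-emerge runs used 0.25% v/v surfactant on 2–3 leaf plants.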

[2] = test system: barnyardgrass (Echinochloa crus-galli, ECHCG); test: as above; conditions: pre-emerge, rated 14 days after application, 0 = no damage, 100 = complete death
Summary of the method: (§1)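 Compounds in acetone were track-sprayed at 187 l/ha, 15–1000 g ai/ha, onto sandy loam pots. Pre-emerge seeds were sown one day before spraying, with surface watering afterwards. Post-emerge plants were at the 2–3 leaf stage and sprayed with 0.25% v/v non-ionic surfactant. Injury was rated 0–100 at 14 days.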

[3] = test system: green foxtail (Setaria viridis, SETVI); test: as above; conditions: pre-emerge, rated 14 days after application, 0 = no damage, 100 = complete death
Summary of the method: as §1

[4] = test system: ivyleaf morningglory (Ipomoea hederacea, IPOHE); test: as above; conditions: pre-emerge, rated 14 days after application, 0 = no damage, 100 = complete death
Summary of the method: as §1

[5] = test system: johnsongrass (Sorghum halepense, SORHA); test: as above; conditions: pre-emerge, rated 14 days after application, 0 = no damage, 100 = complete death
Summary of the method: as §1

[6] = test system: lambsquarters (Chenopodium album, CHEAL); test: as above; conditions: pre-emerge, rated 14 days after application, 0 = no damage, 100 = complete death
Summary of the method: as §1

[7] = test system: large crabgrass (Digitaria sanguinalis, DIGSA); test: as above; conditions: pre-emerge, rated 14 days after application, 0 = no damage, 100 = complete death
Summary of the method: as §1

[8] = test system: sicklepod (Cassia obtusifolia, CASOB); test: as above; conditions: pre-emerge, rated 14 days after application, 0 = no damage, 100 = complete death
Summary of the method: as §1

[9] = test system: velvetleaf (Abutilon theophrasti, ABUTH); test: as above; conditions: pre-emerge, rated 14 days after application, 0 = no damage, 100 = complete death
Summary of the method: as §1

[10] = test system: field corn (Zea mays L., var. Dekalb 535, CORN); test: Pre-emerge test, crop safety; conditions: pre-emerge, rated 14 days after application, 0 = no damage, 100 = complete death
Summary of the method: (§2)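 Herbicidal damage is scored 0 (none) to 100 (complete plant death) two weeks after a simulated field spray. Rates span 15–1000 g ai/ha, delivered in acetone at 187 l/ha. For post-emergence treatments, plants have 2–3 leaves and the spray carries 0.25% v/v non-ionic surfactant.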

[11] = test system: upland rice (Oryza sp., var. Tebonnet, RICE); test: Pre-emerge test, crop safety; conditions: pre-emerge, rated 14 days after application, 0 = no damage, 100 = complete death
Summary of the method: as §2

[12] = test system: barnyardgrass (Echinochloa crus-galli, ECHCG); test: Post-emerge test, greenhouse herbicide activity screening; conditions: 14 days after application; for Post-emerge Herbicidal Activity ECHCG: phytotoxicity rating 0-100 (0 no damage, 100 complete death); for phytotoxicity rating ECHCG: post-emerge, rating scale 0-100
Summary of the method: (§3)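 Sandy loam pots; pre-emerge: sown 1 d pre-spray, surface-watered after, then bottom-watered. Post-emerge: sown 8–21 d before, 2–3 leaf stage, + 0.25% v/v NIS, bottom-watered. Acetone, 187 l/ha track spray, 15–1000 g ai/ha. 0–100 injury score, day 14.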

[13] = test system: common ragweed (Ambrosia artemisizfolia L., AMBEL); test: as above; conditions: post-emerge, 14 days after application, rating scale 0-100
Summary of the method: as §3

[14] = test system: green foxtail (Setaria viridis, SETVI); test: as above; conditions: 14 days after application; for Post-emerge Herbicidal Activity SETVI: phytotoxicity rating 0-100 (0 no damage, 100 complete death); for phytotoxicity rating SETVI: post-emerge, rating scale 0-100
Summary of the method: as §3

[15] = test system: ivyleaf morningglory (Ipomoea hederacea, IPOHE); test: as above; conditions: 14 days after application; for Post-emerge Herbicidal Activity IPOHE: phytotoxicity rating 0-100 (0 no damage, 100 complete death); for phytotoxicity rating IPOHE: post-emerge, rating scale 0-100
Summary of the method: as §3

[16] = test system: johnsongrass (Sorghum halepense, SORHA); test: as above; conditions: 14 days after application; for Post-emerge Herbicidal Activity SORHA: phytotoxicity rating 0-100 (0 no damage, 100 complete death); for phytotoxicity rating SORHA: post-emerge, rating scale 0-100
Summary of the method: as §3

[17] = test system: lambsquarters (Chenopodium album, CHEAL); test: as above; conditions: 14 days after application; for Post-emerge Herbicidal Activity CHEAL: phytotoxicity rating 0-100 (0 no damage, 100 complete death); for phytotoxicity rating CHEAL: post-emerge, rating scale 0-100
Summary of the method: as §3

[18] = test system: large crabgrass (Digitaria sanguinalis, DIGSA); test: as above; conditions: 14 days after application; for Post-emerge Herbicidal Activity DIGSA: phytotoxicity rating 0-100 (0 no damage, 100 complete death); for phytotoxicity rating DIGSA: post-emerge, rating scale 0-100
Summary of the method: as §3

[19] = test system: redroot pigweed (Amaranthus retroflexus, AMARE); test: as above; conditions: 14 days after application; for Post-emerge Herbicidal Activity AMARE: phytotoxicity rating 0-100 (0 no damage, 100 complete death); for phytotoxicity rating AMARE: post-emerge, rating scale 0-100
Summary of the method: as §3

[20] = test system: sicklepod (Cassia obtusifolia, CASOB); test: as above; conditions: 14 days after application; for Post-emerge Herbicidal Activity CASOB: phytotoxicity rating 0-100 (0 no damage, 100 complete death); for phytotoxicity rating CASOB: post-emerge, rating scale 0-100
Summary of the method: as §3

[21] = test system: velvetleaf (Abutilon theophrasti, ABUTH); test: as above; conditions: 14 days after application; for Post-emerge Herbicidal Activity ABUTH: phytotoxicity rating 0-100 (0 no damage, 100 complete death); for phytotoxicity rating ABUTH: post-emerge, rating scale 0-100
Summary of the method: as §3

[22] = test system: field corn (Zea mays L., var. Dekalb 535, CORN); test: Post-emerge test, crop safety; conditions: 14 days after application; for Post-emerge Herbicidal Activity CORN (crop damage): phytotoxicity rating 0-100 (0 no damage, 100 complete death); for phytotoxicity rating CORN: post-emerge, rating scale 0-100
Summary of the method: as §1

[23] = test system: upland rice (Oryza sp., var. Tebonnet, RICE); test: Post-emerge test, crop safety; conditions: 14 days after application; for Post-emerge Herbicidal Activity RICE (crop damage): phytotoxicity rating 0-100 (0 no damage, 100 complete death); for phytotoxicity rating RICE: post-emerge, rating scale 0-100
Summary of the method: as §1

COc1c(Cl)cc(F)c(-n2c(=O)cc(C(F)(F)F)n(C)c2=O)c1NC(=O)CC#N [2-14]
Pre-emerge Herbicidal Activity AMARE (phytotoxicity rating, scale 0-100) ([1]; 63 g ai/ha): 50
Pre-emerge Herbicidal Activity AMARE (phytotoxicity rating, scale 0-100) ([1]; 250 g ai/ha): 100
Pre-emerge Herbicidal Activity ECHCG (phytotoxicity rating, scale 0-100) ([2]; 63 g ai/ha): 0
Pre-emerge Herbicidal Activity ECHCG (phytotoxicity rating, scale 0-100) ([2]; 250 g ai/ha): 0
Pre-emerge Herbicidal Activity SETVI (phytotoxicity rating, scale 0-100) ([3]; 63 g ai/ha): 60
Pre-emerge Herbicidal Activity SETVI (phytotoxicity rating, scale 0-100) ([3]; 250 g ai/ha): 100
Pre-emerge Herbicidal Activity IPOHE (phytotoxicity rating, scale 0-100) ([4]; 63 g ai/ha): 0
Pre-emerge Herbicidal Activity IPOHE (phytotoxicity rating, scale 0-100) ([4]; 250 g ai/ha): 100
Pre-emerge Herbicidal Activity SORHA (phytotoxicity rating, scale 0-100) ([5]; 63 g ai/ha): 0
Pre-emerge Herbicidal Activity SORHA (phytotoxicity rating, scale 0-100) ([5]; 250 g ai/ha): 30
Pre-emerge Herbicidal Activity CHEAL (phytotoxicity rating, scale 0-100) ([6]; 63 g ai/ha): 50
Pre-emerge Herbicidal Activity CHEAL (phytotoxicity rating, scale 0-100) ([6]; 250 g ai/ha): 100
Pre-emerge Herbicidal Activity DIGSA (phytotoxicity rating, scale 0-100) ([7]; 63 g ai/ha): 0
Pre-emerge Herbicidal Activity DIGSA (phytotoxicity rating, scale 0-100) ([7]; 250 g ai/ha): 20
Pre-emerge Herbicidal Activity CASOB (phytotoxicity rating, scale 0-100) ([8]; 63 g ai/ha): 0
Pre-emerge Herbicidal Activity CASOB (phytotoxicity rating, scale 0-100) ([8]; 250 g ai/ha): 60
Pre-emerge Herbicidal Activity ABUTH (phytotoxicity rating, scale 0-100) ([9]; 63 g ai/ha): 90
Pre-emerge Herbicidal Activity ABUTH (phytotoxicity rating, scale 0-100) ([9]; 250 g ai/ha): 100
Pre-emerge crop damage CORN (phytotoxicity rating, scale 0-100) ([10]; 63 g ai/ha): 0
Pre-emerge crop damage CORN (phytotoxicity rating, scale 0-100) ([10]; 250 g ai/ha): 0
Pre-emerge crop damage RICE (phytotoxicity rating, scale 0-100) ([11]; 63 g ai/ha): 0
Pre-emerge crop damage RICE (phytotoxicity rating, scale 0-100) ([11]; 250 g ai/ha): 30
Post-emerge Herbicidal Activity ECHCG ([12]; 63 g ai/ha): 0
Post-emerge Herbicidal Activity ECHCG ([12]; 250 g ai/ha): 0
phytotoxicity rating ECHCG ([12]; 63 g ai/ha): 30
phytotoxicity rating ECHCG ([12]; 250 g ai/ha): 40
phytotoxicity rating AMBEL ([13]; 63 g ai/ha): 60
phytotoxicity rating AMBEL ([13]; 250 g ai/ha): 90
Post-emerge Herbicidal Activity SETVI ([14]; 63 g ai/ha): 0
Post-emerge Herbicidal Activity SETVI ([14]; 250 g ai/ha): 0
phytotoxicity rating SETVI ([14]; 63 g ai/ha): 20
phytotoxicity rating SETVI ([14]; 250 g ai/ha): 50
Post-emerge Herbicidal Activity IPOHE ([15]; 63 g ai/ha): 40
Post-emerge Herbicidal Activity IPOHE ([15]; 250 g ai/ha): 80
phytotoxicity rating IPOHE ([15]; 63 g ai/ha): 70
phytotoxicity rating IPOHE ([15]; 250 g ai/ha): 90
Post-emerge Herbicidal Activity SORHA ([16]; 63 g ai/ha): 0
Post-emerge Herbicidal Activity SORHA ([16]; 250 g ai/ha): 0
phytotoxicity rating SORHA ([16]; 63 g ai/ha): 20
phytotoxicity rating SORHA ([16]; 250 g ai/ha): 20
Post-emerge Herbicidal Activity CHEAL ([17]; 63 g ai/ha): 30
Post-emerge Herbicidal Activity CHEAL ([17]; 250 g ai/ha): 40
phytotoxicity rating CHEAL ([17]; 63 g ai/ha): 80
phytotoxicity rating CHEAL ([17]; 250 g ai/ha): 100
Post-emerge Herbicidal Activity DIGSA ([18]; 63 g ai/ha): 0
Post-emerge Herbicidal Activity DIGSA ([18]; 250 g ai/ha): 0
phytotoxicity rating DIGSA ([18]; 63 g ai/ha): 10
phytotoxicity rating DIGSA ([18]; 250 g ai/ha): 20
Post-emerge Herbicidal Activity AMARE ([19]; 63 g ai/ha): 40
Post-emerge Herbicidal Activity AMARE ([19]; 250 g ai/ha): 70
phytotoxicity rating AMARE ([19]; 63 g ai/ha): 85
phytotoxicity rating AMARE ([19]; 250 g ai/ha): 100
Post-emerge Herbicidal Activity CASOB ([20]; 63 g ai/ha): 10
Post-emerge Herbicidal Activity CASOB ([20]; 250 g ai/ha): 10
phytotoxicity rating CASOB ([20]; 63 g ai/ha): 40
phytotoxicity rating CASOB ([20]; 250 g ai/ha): 70
Post-emerge Herbicidal Activity ABUTH ([21]; 63 g ai/ha): 90
Post-emerge Herbicidal Activity ABUTH ([21]; 250 g ai/ha): 95
phytotoxicity rating ABUTH ([21]; 63 g ai/ha): 100
phytotoxicity rating ABUTH ([21]; 250 g ai/ha): 100
Post-emerge Herbicidal Activity CORN (crop damage) ([22]; 63 g ai/ha): 0
Post-emerge Herbicidal Activity CORN (crop damage) ([22]; 250 g ai/ha): 10
phytotoxicity rating CORN ([22]; 63 g ai/ha): 50
phytotoxicity rating CORN ([22]; 250 g ai/ha): 60
Post-emerge Herbicidal Activity RICE (crop damage) ([23]; 63 g ai/ha): 10
Post-emerge Herbicidal Activity RICE (crop damage) ([23]; 250 g ai/ha): 30
phytotoxicity rating RICE ([23]; 63 g ai/ha): 60
phytotoxicity rating RICE ([23]; 250 g ai/ha): 90
